What was measured:
[1] = target: SHP-2 enzyme (Met1-Leu525) (Homo sapiens (Human), UniProt Q06124); assay: SHP2 inhibition enzymatic assay; type: biochemical; settings: 0.5 nM SHP-2 activated by 500 nM IRS1 peptide, 75 μM DiFMUP substrate; read-out: SHP2wt-IC50
In short: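 SHP-2 (Met1-Leu525), 0.5 nM, activated with 500 nM IRS1 bis-phosphopeptide, preincubated 30 min with compounds in HEPES pH 7.2 buffer with 5 mM DTT. 75 μM DiFMUP added for 30 min at room temperature, stopped with bpV; fluorescence read. IC50 from four-parameter logistic fit of % inhibition.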

[2] = test system: ERK phosphorylation in KYSE-520 cells; assay: Phospho-ERK cellular assay; type: cell-based; settings: Homo sapiens, KYSE-520, 2 h, KYSE-520 cells, 2 h at 37° C., phospho-ERK1/2 (Thr202/Tyr204) TR-FRET; read-out: PERK IC50
In short: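 TR-FRET read-out of ERK1/2 Thr202/Tyr204 phosphorylation was taken after overnight antibody incubation at room temperature. Before that, KYSE-520 cells were treated 2 h at 37 °C with compound dilutions and lysed 30 min. Percent inhibition relative to vehicle and cell-free wells was fitted four-parametrically to give IC50.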

SHP-2 enzyme (Met1-Leu525), sequence (Q06124 1-525): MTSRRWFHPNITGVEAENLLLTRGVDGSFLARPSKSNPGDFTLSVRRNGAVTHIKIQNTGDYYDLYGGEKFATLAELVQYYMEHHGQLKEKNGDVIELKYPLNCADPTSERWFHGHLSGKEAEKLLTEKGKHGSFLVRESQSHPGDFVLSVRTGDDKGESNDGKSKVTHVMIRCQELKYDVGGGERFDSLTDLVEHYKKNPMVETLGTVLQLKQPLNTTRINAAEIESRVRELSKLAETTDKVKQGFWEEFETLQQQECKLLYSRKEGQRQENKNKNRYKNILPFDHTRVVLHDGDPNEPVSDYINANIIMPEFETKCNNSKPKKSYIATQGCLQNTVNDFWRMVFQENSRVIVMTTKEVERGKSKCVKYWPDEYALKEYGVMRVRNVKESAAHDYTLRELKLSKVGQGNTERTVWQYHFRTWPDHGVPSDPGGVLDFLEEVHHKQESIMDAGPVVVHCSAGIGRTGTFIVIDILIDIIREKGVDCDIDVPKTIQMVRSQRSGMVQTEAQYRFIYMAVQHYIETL

Structure (SMILES) | IC50 [1] [nM] | IC50 [2] [nM]
NC[C@]1(c2ncccc2F)[C@@H]2CCN(c3cnc4c(-c5cccn6nccc56)n[nH]c4n3)C[C@@H]21 [Example 140, ((1S,6R,7S)-7-(3-fluoropyridin-2-yl)-3-(3-(pyrazolo[1,5-a]pyridin-4-yl)-1H-pyrazolo[3,4-b]pyrazin-6-yl)-3-azabicyclo[4.1.0]heptan-7-yl)methanamine] | < 500 | < 1000
NC[C@]1(c2ccccc2F)[C@@H]2CCN(c3cnc4c(-c5ccc6ncccc6c5)n[nH]c4n3)C[C@@H]21 [Example 141, ((1S,6R,7R)-7-(2-fluorophenyl)-3-(3-(quinolin-6-yl)-1H-pyrazolo[3,4-b]pyrazin-6-yl)-3-azabicyclo[4.1.0]heptan-7-yl)methanamine] | < 500 | < 1000
CC(O)c1ccc(-c2n[nH]c3nc(N4CC[C@@H]5[C@H](C4)[C@@]5(CN)c4ccccc4F)cnc23)c2cccnc12 (stereo partly drawn) [Example 142, 1-(5-(6-((1S,6R,7R)-7-(aminomethyl)-7-(2-fluorophenyl)-3-azabicyclo[4.1.0]heptan-3-yl)-1H-pyrazolo[3,4-b]pyrazin-3-yl)quinolin-8-yl)ethan-1-ol] | < 500 | < 1000
NC[C@]1(c2ncccc2F)[C@@H]2CCN(c3cnc4c(-c5ccc(OC(F)(F)F)c6ncccc56)n[nH]c4n3)C[C@@H]21 [Example 144, ((1S,6R,7S)-7-(3-fluoropyridin-2-yl)-3-(3-(8-(trifluoromethoxy)quinolin-5-yl)-1H-pyrazolo[3,4-b]pyrazin-6-yl)-3-azabicyclo[4.1.0]heptan-7-yl)methanamine] | < 500 | < 1000
Cc1cc([C@@]2(CN)[C@@H]3CCN(c4cnc5c(-c6cncc7ncccc67)n[nH]c5n4)C[C@@H]32)no1 [Example 148, ((1S,6R,7S)-3-(3-(1,7-naphthyridin-5-yl)-1H-pyrazolo[3,4-b]pyrazin-6-yl)-7-(5-methylisoxazol-3-yl)-3-azabicyclo[4.1.0]heptan-7-yl)methanamine] | < 500 | < 1000
COc1ccc2cc(-c3n[nH]c4nc(N5CC[C@@H]6[C@H](C5)[C@@]6(CN)c5cc(C)on5)cnc34)ccc2n1 [Example 149, ((1S,6R,7S)-3-(3-(2-methoxyquinolin-6-yl)-1H-pyrazolo[3,4-b]pyrazin-6-yl)-7-(5-methylisoxazol-3-yl)-3-azabicyclo[4.1.0]heptan-7-yl)methanamine] | < 500 | < 1000
Cc1cc([C@@]2(CN)[C@@H]3CCN(c4cnc5c(-c6ccc7nc(C(F)(F)F)ccc7c6)n[nH]c5n4)C[C@@H]32)no1 [Example 150, ((1S,6R,7S)-7-(5-methylisoxazol-3-yl)-3-(3-(2-(trifluoromethyl)quinolin-6-yl)-1H-pyrazolo[3,4-b]pyrazin-6-yl)-3-azabicyclo[4.1.0]heptan-7-yl)methanamine] | < 500 | < 1000
COc1ccc2cc(-c3n[nH]c4nc(N5CC[C@@H]6[C@H](C5)[C@@]6(CN)c5cc(C)on5)cnc34)cnc2c1 [Example 151, ((1S,6R,7S)-3-(3-(7-methoxyquinolin-3-yl)-1H-pyrazolo[3,4-b]pyrazin-6-yl)-7-(5-methylisoxazol-3-yl)-3-azabicyclo[4.1.0]heptan-7-yl)methanamine] | < 500 | < 1000
Cc1cc([C@@]2(CN)[C@@H]3CCN(c4cnc5c(-c6cnc7cc(C(F)(F)F)ccc7c6)n[nH]c5n4)C[C@@H]32)no1 [Example 152, ((1S,6R,7S)-7-(5-methylisoxazol-3-yl)-3-(3-(7-(trifluoromethyl)quinolin-3-yl)-1H-pyrazolo[3,4-b]pyrazin-6-yl)-3-azabicyclo[4.1.0]heptan-7-yl)methanamine] | < 500 | < 1000
Cc1cc([C@@]2(CN)[C@@H]3CCN(c4cnc5c(-c6ccc(F)c7ncccc67)c[nH]c5n4)C[C@@H]32)no1 [Example 156, ((1S,6R,7S)-3-(7-(8-fluoroquinolin-5-yl)-5H-pyrrolo[2,3-b]pyrazin-3-yl)-7-(5-methylisoxazol-3-yl)-3-azabicyclo[4.1.0]heptan-7-yl)methanamine] | < 500 | < 1000
Cc1c(-c2c[nH]c3nc(N4CC[C@@H]5[C@H](C4)[C@@]5(CN)c4ccccc4F)cnc23)ccc2nn(C)cc12 [Example 157, ((1S,6R,7R)-3-(7-(2,4-dimethyl-2H-indazol-5-yl)-5H-pyrrolo[2,3-b]pyrazin-3-yl)-7-(2-fluorophenyl)-3-azabicyclo[4.1.0]heptan-7-yl)methanamine] | < 500 | < 1000
NC[C@]1(c2ccccc2F)[C@@H]2CCN(c3cnc4c(-c5cccc(-c6cnccn6)c5Cl)n[nH]c4n3)C[C@@H]21 [Example 158, ((1S,6R,7R)-3-(3-(2-chloro-3-(pyrazin-2-yl)phenyl)-1H-pyrazolo[3,4-b]pyrazin-6-yl)-7-(2-fluorophenyl)-3-azabicyclo[4.1.0]heptan-7-yl)methanamine] | < 500 | < 1000
NC[C@]1(c2ccccc2F)[C@@H]2CCN(c3cnc4c(-c5ccc(OC(F)F)c6ncccc56)n[nH]c4n3)C[C@@H]21 [Example 160, ((1S,6R,7R)-3-(3-(8-(difluoromethoxy)quinolin-5-yl)-1H-pyrazolo[3,4-b]pyrazin-6-yl)-7-(2-fluorophenyl)-3-azabicyclo[4.1.0]heptan-7-yl)methanamine] | < 500 | < 1000

More lines, now with the values ahead:

IC50 [1] [nM] | IC50 [2] [nM] | Structure (SMILES)
< 500 | < 1000 | NC[C@]1(c2ccccc2F)[C@@H]2CCN(c3cnc4c(-c5cccc6nccn56)n[nH]c4n3)C[C@@H]21 [Example 143, ((1S,6R,7R)-7-(2-fluorophenyl)-3-(3-(imidazo[1,2-a]pyridin-5-yl)-1H-pyrazolo[3,4-b]pyrazin-6-yl)-3-azabicyclo[4.1.0]heptan-7-yl)methanamine]
< 500 | < 1000 | Cc1c(-c2n[nH]c3nc(N4CC[C@@H]5[C@H](C4)[C@@]5(CN)c4ccccc4F)cnc23)ccc2nn(C)cc12 [Example 145, ((1S,6R,7R)-3-(3-(2,4-dimethyl-2H-indazol-5-yl)-1H-pyrazolo[3,4-b]pyrazin-6-yl)-7-(2-fluorophenyl)-3-azabicyclo[4.1.0]heptan-7-yl)methanamine]
< 500 | < 1000 | COc1ccc(-c2n[nH]c3nc(N4CC[C@@H]5[C@H](C4)[C@@]5(CN)c4ccccc4F)cnc23)c2cccnc12 [Example 146, ((1S,6R,7R)-7-(2-fluorophenyl)-3-(3-(8-methoxyquinolin-5-yl)-1H-pyrazolo[3,4-b]pyrazin-6-yl)-3-azabicyclo[4.1.0]heptan-7-yl)methanamine]
< 500 | < 1000 | COc1cc(-c2n[nH]c3nc(N4CC[C@@H]5[C@H](C4)[C@@]5(CN)c4ccccc4F)cnc23)c2ccnn2c1 [Example 147, ((1S,6R,7R)-7-(2-fluorophenyl)-3-(3-(6-methoxypyrazolo[1,5-a]pyridin-4-yl)-1H-pyrazolo[3,4-b]pyrazin-6-yl)-3-azabicyclo[4.1.0]heptan-7-yl)methanamine]
< 500 | < 1000 | NC[C@]1(c2ccccc2F)[C@@H]2CCN(c3cnc4c(-c5nccc6ncccc56)n[nH]c4n3)C[C@@H]21 [Example 153, ((1S,6R,7R)-3-(3-(1,6-naphthyridin-5-yl)-1H-pyrazolo[3,4-b]pyrazin-6-yl)-7-(2-fluorophenyl)-3-azabicyclo[4.1.0]heptan-7-yl)methanamine]
< 500 | < 1000 | NC[C@]1(c2ccccc2F)[C@@H]2CCN(c3cnc4c(-c5ccnc6c5CCO6)n[nH]c4n3)C[C@@H]21 [Example 154, ((1S,6R,7R)-3-(3-(2,3-dihydrofuro[2,3-b]pyridin-4-yl)-1H-pyrazolo[3,4-b]pyrazin-6-yl)-7-(2-fluorophenyl)-3-azabicyclo[4.1.0]heptan-7-yl)methanamine]
< 500 | < 1000 | NC[C@]1(c2ccccc2F)[C@@H]2CCN(c3cnc4c(-c5ccnc6cnccc56)n[nH]c4n3)C[C@@H]21 [Example 155, ((1S,6R,7R)-3-(3-(1,7-naphthyridin-4-yl)-1H-pyrazolo[3,4-b]pyrazin-6-yl)-7-(2-fluorophenyl)-3-azabicyclo[4.1.0]heptan-7-yl)methanamine]
< 500 | < 1000 | NC[C@]1(c2ccccc2F)[C@@H]2CCN(c3cnc4c(-c5ccc(CO)c6ncccc56)n[nH]c4n3)C[C@@H]21 [Example 159, (5-(6-((1S,6R,7R)-7-(aminomethyl)-7-(2-fluorophenyl)-3-azabicyclo[4.1.0]heptan-3-yl)-1H-pyrazolo[3,4-b]pyrazin-3-yl)quinolin-8-yl)methanol]
< 500 | < 1000 | Cc1ccc(-c2n[nH]c3nc(N4CC[C@@H]5[C@H](C4)[C@@]5(CN)c4ccccc4F)cnc23)c2ccnn12 [Example 161, ((1S,6R,7R)-7-(2-fluorophenyl)-3-(3-(7-methylpyrazolo[1,5-a]pyridin-4-yl)-1H-pyrazolo[3,4-b]pyrazin-6-yl)-3-azabicyclo[4.1.0]heptan-7-yl)methanamine]
< 500 | < 1000 | NC[C@]1(c2ccccc2F)[C@@H]2CCN(c3cnc4c(-c5cccc(Br)c5Cl)n[nH]c4n3)C[C@@H]21 [Example 162, ((1S,6R,7R)-3-(3-(3-bromo-2-chlorophenyl)-1H-pyrazolo[3,4-b]pyrazin-6-yl)-7-(2-fluorophenyl)-3-azabicyclo[4.1.0]heptan-7-yl)methanamine]
